Reference: US20250092065A1, “2-(INDAZOL-5-YL)-6-(PIPERIDIN-4-YL)-1,7-NAPHTHYRIDINE DERIVATIVES AND RELATED COMPOUNDS AS MODULATORS FOR SPLICING NUCLEIC ACIDS AND FOR THE TREATMENT OF PROLIFERATIVE DISEASES” (REMIX THERAPEUTICS INC., priority 2022, published 2025)
Where two headings read alike, the source gives them in different places.

Experiments:
Type in all cases: cell-based, human
[1] = system: HTT mRNA; assay: RT-qPCR splicing assay, HTT mRNA canonical (CJ) and alternative (AJ) junction; conditions: Homo sapiens; for AC50: HTT alternative junction mRNA, read-out: HTT AJ (increase in AJ mRNA, AC50)
In short: (§1)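 A673 or K562 cells treated 24 h at 37 °C with 11-point 3-fold dilutions (top final 10 uM, DMSO ≤0.25%). Lysates analysed by one-step RT-qPCR for canonical (CJ) and alternative-exon (AJ) junctions, normalized to GAPDH, GUSB or PPIA. ΔΔCt vs DMSO, RQ = 2^(−ΔΔCt), expressed as percentage response.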

[2] = system: MYB mRNA; assay: RT-qPCR splicing assay, MYB mRNA canonical (CJ) and alternative (AJ) junction; conditions: Homo sapiens; for AC50: MYB alternative junction mRNA, read-out: MYB AJ (increase in AJ mRNA, AC50)
In short: as §1

[3] = system: MYB; assay: HiBiT protein abundance assay, MYB (K562 HiBiT knock-in); conditions: HiBiT knock-in K562 cells, 24 hours, top dose 10 μM
In short: (§2)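 Endogenously HiBiT-tagged K562 lines were treated for 24 h at 37 °C with 10-point 3-fold dilutions (top 10 μM final, DMSO ≤0.25%). Lytic LgBiT complementation luminescence was normalized between unmodified K562 (PC) and DMSO-treated tagged cells (NC); IC50 was interpolated at 50% from a four-parameter logistic fit.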

[4] = system: HTT; assay: HiBiT protein abundance assay, HTT (K562 HiBiT knock-in); conditions: HiBiT knock-in K562 cells, 24 hours, top dose 10 μM
In short: as §2

[5] = system: Target C; assay: HiBiT protein abundance assay, Target C (K562 HiBiT knock-in); conditions: HiBiT knock-in K562 cells, 24 hours, top dose 10 μM
In short: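 K562 HiBiT knock-in cells (10000/well) were treated 24 h at 37° C with a 10-point 3-fold dilution series (top 10 μM final, ≤0.25% DMSO). HiBiT luminescence was read after lytic LgBiT detection. Percent response used unmodified K562 and DMSO-treated knock-in controls, and IC50 came from a four-parameter fit at 50% of untreated.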

[6] = HTT canonical junction mRNA, RT-qPCR, read-out: HTT CJ (decrease in CJ mRNA levels, IC50)
[7] = canonical junction qPCR panel, Table 4, read-out: HTT IC50 (decrease in CJ mRNA levels)
[8] = MYB canonical junction mRNA, RT-qPCR, read-out: MYB CJ (decrease in CJ mRNA levels, IC50)
[9] = canonical junction qPCR panel, Table 4, read-out: MYB IC50 (decrease in CJ mRNA levels)

Compound	AC50 ([1]; RT-qPCR)	IC50 [1, 6]	IC50 [1, 7]	AC50 ([2]; RT-qPCR)	IC50 [2, 8]	IC50 [2, 9]	IC50 [3]	IC50 [4]	IC50 [5]
Cn1cc2cc(-c3ccc4nc(N5CC[C@@H](NC6CCC6)C5)ccc4n3)c(O)c(F)c2n1 (single isomer, unassigned) [Compound 316]	< 100 nM	< 100 nM	< 100 nM	< 100 nM	< 100 nM	< 100 nM	< 100 nM	< 100 nM	< 100 nM
Cn1cc2cc(-c3ccc4nc(N5CC[C@H](NC6CCC6)C5)ccc4n3)c(O)c(F)c2n1 (single isomer, unassigned) [Compound 317]	< 100 nM	< 100 nM	< 100 nM	< 100 nM	< 100 nM	< 100 nM	< 100 nM	< 100 nM	< 100 nM
Cc1c(O)c(-c2ccc3nc(N4CC[C@@H](NC(C)C)C4)ccc3n2)cc2cn(C)nc12 (single isomer, unassigned) [Compound 319]	< 100 nM	< 100 nM	< 100 nM	< 100 nM	< 100 nM	< 100 nM	< 100 nM	< 100 nM	< 100 nM
Cc1c(O)c(-c2ccc3nc(N4CC[C@H](NCC5CC5)C4)ccc3n2)cc2cn(C)nc12 (single isomer, unassigned) [Compound 321]	< 100 nM	< 100 nM	< 100 nM	< 100 nM	< 100 nM	< 100 nM	< 100 nM	< 100 nM	< 100 nM
Cc1c(O)c(-c2ccc3nc(N4CC[C@@H](NCC5CC5)C4)ccc3n2)cc2cn(C)nc12 (single isomer, unassigned) [Compound 322]	< 100 nM	< 100 nM	< 100 nM	< 100 nM	< 100 nM	< 100 nM	< 100 nM	< 100 nM	< 100 nM
Cc1nc2c(F)c(O)c(-c3ccc4nc(N5CC[C@@H](NCC6CC6)C5)ccc4n3)cc2o1 (single isomer, unassigned) [Compound 323]	< 100 nM	< 100 nM	< 100 nM	< 100 nM	< 100 nM	< 100 nM	< 100 nM	< 100 nM	< 100 nM
Cc1nc2c(F)c(O)c(-c3ccc4nc(N5CC[C@H](NCC6CC6)C5)ccc4n3)cc2o1 (single isomer, unassigned) [Compound 324]	< 100 nM	< 100 nM	< 100 nM	< 100 nM	< 100 nM	< 100 nM	< 100 nM	< 100 nM	< 100 nM
Cc1nc2c(F)c(O)c(-c3ccc4nc(N5CC[C@@H](NC(C)C)C5)ccc4n3)cc2o1 (single isomer, unassigned) [Compound 329]	< 100 nM	< 100 nM	< 100 nM	< 100 nM	< 100 nM	< 100 nM	< 100 nM	< 100 nM	< 100 nM
Cc1nc2c(F)c(O)c(-c3ccc4nc(N5CC[C@H](NC(C)C)C5)ccc4n3)cc2o1 (single isomer, unassigned) [Compound 330]	< 100 nM	< 100 nM	< 100 nM	< 100 nM	< 100 nM	< 100 nM	< 100 nM	< 100 nM	< 100 nM
Cn1cc2cc(-c3ccc4nc(N5CC[C@H](N[C@H]6C[C@H](F)C6)C5)ccc4n3)c(O)c(F)c2n1 (single isomer, unassigned) [Compound 347]	< 100 nM	< 100 nM	< 100 nM	< 100 nM	< 100 nM	< 100 nM	< 100 nM	< 100 nM	< 100 nM
Cc1nc2cc(O)c(-c3ccc4nc(N5CC[C@@H](N[C@H]6C[C@H](F)C6)C5)ccc4n3)cc2o1 (single isomer, unassigned) [Compound 348]	100 to 1000 nM	100 to 1000 nM	100 to 1000 nM	< 100 nM	< 100 nM	< 100 nM	< 100 nM	< 100 nM	100 to 1000 nM
Cn1cc2cc(-c3ccc4nc(N5CC[C@@H](N[C@H]6C[C@H](F)C6)C5)ccc4n3)c(O)c(F)c2n1 (single isomer, unassigned) [Compound 349]	< 100 nM	< 100 nM	< 100 nM	< 100 nM	< 100 nM	< 100 nM	< 100 nM	< 100 nM	< 100 nM
Cc1nc2c(C)c(O)c(-c3ccc4nc(N5CC[C@H](N[C@H]6C[C@H](F)C6)C5)ccc4n3)cc2o1 (single isomer, unassigned) [Compound 351]	< 100 nM	< 100 nM	< 100 nM	< 100 nM	< 100 nM	< 100 nM	< 100 nM	< 100 nM	< 100 nM
Cc1nc2c(C)c(O)c(-c3ccc4nc(N5CC[C@@H](N[C@H]6C[C@H](F)C6)C5)ccc4n3)cc2o1 (single isomer, unassigned) [Compound 352]	< 100 nM	< 100 nM	< 100 nM	< 100 nM	< 100 nM	< 100 nM	< 100 nM	< 100 nM	< 100 nM
Cc1nc2c(F)c(O)c(-c3ccc4nc(N5CC[C@@H](NC6(C)CC6)C5)ccc4n3)cc2o1 (stereo in doubt) [Compound 326, 4-fluoro-2-methyl-6-{6-[(3 S)-3-[(1-methylcyclopropyl)amino]pyrrolidin-1-yl]-1,5-naphthyridin-2-yl}-1,3-benzoxazol-5-ol]	< 100 nM	< 100 nM	< 100 nM	< 100 nM	< 100 nM	< 100 nM	< 100 nM	< 100 nM	< 100 nM
Cc1nc2c(F)c(O)c(-c3ccc4nc(N5CCC(NC6(C)CC6)C5)ccc4n3)cc2o1 (stereo in doubt) [Compound 327, 4-fluoro-2-methyl-6-{6-[(3R)-3-[(1-methylcyclopropyl)amino]pyrrolidin-1-yl]-1,5-naphthyridin-2-yl}-1,3-benzoxazol-5-ol]	< 100 nM	< 100 nM	< 100 nM	< 100 nM	< 100 nM	< 100 nM	< 100 nM	< 100 nM	< 100 nM
Cc1nc2c(C)c(O)c(-c3ccc4nc(N5CC[C@H](NC(C)(C)C)C5)ccc4n3)cc2o1 [Compound 214]	< 100 nM	< 100 nM	< 100 nM	100 to 1000 nM	100 to 1000 nM	100 to 1000 nM	< 100 nM	< 100 nM	< 100 nM
Cc1nc2c(C)c(O)c(-c3ccc4nc(N5CC[C@H](NC6CC6)C5)ccc4n3)cc2o1 [Compound 216]	< 100 nM	< 100 nM	< 100 nM	< 100 nM	< 100 nM	< 100 nM	< 100 nM	< 100 nM	< 100 nM
Cc1nc2c(C)c(O)c(-c3ccc4nc(N5CC[C@@H](NC6CC6)C5)ccc4n3)cc2o1 [Compound 217]	< 100 nM	< 100 nM	< 100 nM	< 100 nM	< 100 nM	< 100 nM	< 100 nM	< 100 nM	< 100 nM
Cn1cc2cc(-c3ccc4nc(N5CCC(NC6(C)CC6)C5)ccc4n3)c(O)cc2n1 (stereo not drawn) [Compound 219]	< 100 nM	< 100 nM	< 100 nM	< 100 nM	< 100 nM	< 100 nM	< 100 nM	< 100 nM	< 100 nM
Cc1nc2cc(O)c(-c3ccc4nc(N5CC[C@@H](NC6CCC6)C5)ccc4n3)cc2o1 [Compound 229]	< 100 nM	< 100 nM	< 100 nM	< 100 nM	< 100 nM	< 100 nM	< 100 nM	< 100 nM	< 100 nM
Cc1nc2cc(O)c(-c3ccc4nc(N5CC[C@H](NC6CCC6)C5)ccc4n3)cc2o1 [Compound 230]	< 100 nM	< 100 nM	< 100 nM	100 to 1000 nM	100 to 1000 nM	100 to 1000 nM	100 to 1000 nM	< 100 nM	< 100 nM
